Data: PubChem BioAssay AID330 (DTP/NCI, 2004)
Values joined by “and” are separate entries in the source; they are usually repeats but may differ in a detail not shown here. Equal entries are not always repeated. Toxic doses and inconclusive results are not listed. How the source made its calls: active means survival T/C of 150% or more; inactive means T/C below 125% in these data.

Tested on: P388 leukemia ip, CD2F1 mice, survival T/C
Assay: NCI In Vivo Anticancer Drug Screen. Data for tumor model P388 Leukemia (intraperitoneal) in CD2F1 (CDF1) mice
Details: endpoint: median survival time, higher = longer survival
Summary of the method: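 Mice carrying the transplanted tumor received test compound or vehicle. Survival was recorded in each group, and the value is the treated-group measurement divided by that of the vehicle-treated control group.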

[1] = dose: 50.0 mg/kg/injection, schedule: Q01DX005 (ip), vehicle: Klucel (hydroxypropylcellulose) (HPC)
[2] = dose: 100.0 mg/kg/injection, schedule: Q01DX005 (ip), vehicle: Klucel (hydroxypropylcellulose) (HPC)
[3] = dose: 200.0 mg/kg/injection, schedule: Q01DX005 (ip), vehicle: Klucel (hydroxypropylcellulose) (HPC)
[4] = dose: 100.0 mg/kg/injection, schedule: Q04DX003 (ip), vehicle: saline
[5] = dose: 100.0 mg/kg/injection, schedule: Q04DX003 (ip), vehicle: Klucel (hydroxypropylcellulose) (HPC)
[6] = dose: 200.0 mg/kg/injection, schedule: Q04DX003 (ip), vehicle: Klucel (hydroxypropylcellulose) (HPC)
[7] = dose: 50.0 mg/kg/injection, schedule: Q01DX009 (ip), vehicle: saline with Tween-80
[8] = dose: 100.0 mg/kg/injection, schedule: Q01DX009 (ip), vehicle: saline with Tween-80
[9] = dose: 200.0 mg/kg/injection, schedule: Q01DX009 (ip), vehicle: saline with Tween-80
[10] = dose: 100.0 mg/kg/injection, schedule: Q01DX001 (ip), vehicle: saline with Tween-80
[11] = dose: 50.0 mg/kg/injection, schedule: Q01DX005 (ip), vehicle: saline with Tween-80
[12] = dose: 100.0 mg/kg/injection, schedule: Q01DX005 (ip), vehicle: saline with Tween-80
[13] = dose: 200.0 mg/kg/injection, schedule: Q01DX005 (ip), vehicle: saline with Tween-80

Measured: T/C

Nc1cc(Cl)c2[nH]cnc2n1
inactive: dose: 25.0 mg/kg/injection, schedule: Q01DX005 (ip), vehicle: distilled water + Tween-80 102 % of control | dose: 50.0 mg/kg/injection, schedule: Q01DX005 (ip), vehicle: distilled water + Tween-80 111 % of control
active: dose: 200.0 mg/kg/injection, schedule: Q01DX005 (ip), vehicle: distilled water + Tween-80 152 % of control

Nc1cc(C(=O)O)cc(Cl)n1
inactive: dose: 3.12 mg/kg/injection, schedule: Q01DX009 (ip), vehicle: saline 108 % of control | dose: 6.25 mg/kg/injection, schedule: Q01DX009 (ip), vehicle: saline 101 % of control | dose: 12.5 mg/kg/injection, schedule: Q01DX009 (ip), vehicle: saline 107 % of control | dose: 25.0 mg/kg/injection, schedule: Q01DX009 (ip), vehicle: saline 111 % of control

Cc1nc2ccccc2c(N)c1-c1cc(C)c2c(C)nc3ccccc3c2n1
inactive: dose: 25.0 mg/kg/injection, schedule: Q01DX005 (ip), vehicle: Klucel (hydroxypropylcellulose) (HPC) 88 % of control | [1] 87 % of control | [2] 90 % of control | [3] 88 % of control

ClC(Cl)(Cl)c1nc2nccnc2[nH]1
inactive: dose: 6.25 mg/kg/injection, schedule: Q01DX009 (ip), vehicle: saline with Tween-80 88 % of control | dose: 12.5 mg/kg/injection, schedule: Q01DX009 (ip), vehicle: saline with Tween-80 100 % of control | dose: 25.0 mg/kg/injection, schedule: Q01DX009 (ip), vehicle: saline with Tween-80 107 % of control and 90 % of control

CCOc1ccc2nc3cc(N)ccc3c(N)c2c1
inactive: dose: 44.0 mg/kg/injection, schedule: Q04DX003 (ip), vehicle: saline 118 % of control | dose: 66.0 mg/kg/injection, schedule: Q04DX003 (ip), vehicle: saline 118 % of control | [4] 118 % of control | dose: 150.0 mg/kg/injection, schedule: Q04DX003 (ip), vehicle: saline 118 % of control

CCOC(=O)C(C)(C)S(=O)(=O)Nc1ccccc1
inactive: dose: 60.0 mg/kg/injection, schedule: Q01DX005 (ip), vehicle: Klucel (hydroxypropylcellulose) (HPC) 105 % of control | dose: 120.0 mg/kg/injection, schedule: Q01DX005 (ip), vehicle: Klucel (hydroxypropylcellulose) (HPC) 102 % of control | dose: 240.0 mg/kg/injection, schedule: Q01DX005 (ip), vehicle: Klucel (hydroxypropylcellulose) (HPC) 102 % of control

CN(C)c1nc(N/N=C/c2ccc([N+](=O)[O-])cc2)nc(N(C)C)n1
inactive: dose: 100.0 mg/kg/injection, schedule: Q04DX003 (ip), vehicle: saline with Tween-80 98 % of control | dose: 200.0 mg/kg/injection, schedule: Q04DX003 (ip), vehicle: saline with Tween-80 105 % of control | dose: 400.0 mg/kg/injection, schedule: Q04DX003 (ip), vehicle: saline with Tween-80 93 % of control

Cn1c2nc(-[n+]3ccccc3)nc-2c([O-])n(C)c1=O
inactive: [4] 94 % of control | dose: 200.0 mg/kg/injection, schedule: Q04DX003 (ip), vehicle: saline 100 % of control | dose: 400.0 mg/kg/injection, schedule: Q04DX003 (ip), vehicle: saline 100 % of control

COC(CN(Cc1cccs1)S(=O)(=O)c1ccc(C)cc1)OC
inactive: [1] 94 % of control | [2] 94 % of control | [3] 99 % of control

NC(=S)N/N=C\C=N\Nc1ccccc1
inactive: [5] 100 % of control | [6] 100 % of control

O=C(/C=C/c1ccccc1O)c1ccccc1
inactive: [7] 97 % of control | [8] 102 % of control | [9] 108 % of control

CCOC(=O)c1c(=O)[nH]c(=O)n2c1[nH]c1ccccc12
inactive: dose: 60.0 mg/kg/injection, schedule: Q01DX005 (ip), vehicle: saline with Tween-80 93 % of control | dose: 120.0 mg/kg/injection, schedule: Q01DX005 (ip), vehicle: saline with Tween-80 91 % of control | dose: 240.0 mg/kg/injection, schedule: Q01DX005 (ip), vehicle: saline with Tween-80 90 % of control

CC1=C(/C=C/c2ccc(N(C)C)cc2)C(C)C(c2ccc(N(C)C)cc2)CC1=O (stereo unspecified)
inactive: dose: 25.0 mg/kg/injection, schedule: Q01DX001 (ip), vehicle: Klucel (hydroxypropylcellulose) (HPC) 88 % of control | dose: 50.0 mg/kg/injection, schedule: Q01DX001 (ip), vehicle: Klucel (hydroxypropylcellulose) (HPC) 94 % of control | dose: 100.0 mg/kg/injection, schedule: Q01DX001 (ip), vehicle: Klucel (hydroxypropylcellulose) (HPC) 93 % of control

O=Cc1cccc(OC(=O)Oc2cccc(C=O)c2)c1
inactive: [10] 101 % of control | dose: 200.0 mg/kg/injection, schedule: Q01DX001 (ip), vehicle: saline with Tween-80 99 % of control | dose: 400.0 mg/kg/injection, schedule: Q01DX001 (ip), vehicle: saline with Tween-80 104 % of control

CC[n+]1c(/C=C/c2ccc(N(CCC(=O)O)CCC(=O)O)cc2C)sc2ccccc21
inactive: dose: 12.5 mg/kg/injection, schedule: Q04DX003 (ip), vehicle: saline with Tween-80 99 % of control | dose: 25.0 mg/kg/injection, schedule: Q04DX003 (ip), vehicle: saline with Tween-80 95 % of control | dose: 50.0 mg/kg/injection, schedule: Q04DX003 (ip), vehicle: saline with Tween-80 100 % of control

CCCCCCCCCCCCCCC/C([O-])=N/[N+](C)(C)CC(C)O (stereo unspecified)
inactive: dose: 50.0 mg/kg/injection, schedule: Q04DX003 (ip), vehicle: Klucel (hydroxypropylcellulose) (HPC) 99 % of control | [5] 99 % of control | [6] 99 % of control

CCC[n+]1ccc(/C=N\NC(N)=S)c2ccccc21
inactive: [7] 110 % of control | [8] 121 % of control | [9] 112 % of control

COC(=O)/C(C)=C/C1N=C1c1ccccc1 (stereo unspecified)
inactive: dose: 25.0 mg/kg/injection, schedule: Q01DX001 (ip), vehicle: saline with Tween-80 114 % of control | dose: 50.0 mg/kg/injection, schedule: Q01DX001 (ip), vehicle: saline with Tween-80 118 % of control | [10] 123 % of control

Cc1[nH]oc(=O)c1C(=O)c1ccccc1
inactive: [11] 95 % of control | [12] 91 % of control | [13] 91 % of control

Nc1n[nH]c2c3c([nH]c(=O)c12)-c1ccccc1SC3
inactive: dose: 100.0 mg/kg/injection, schedule: Q04DX002 (ip), vehicle: Klucel (hydroxypropylcellulose) (HPC) 102 % of control | dose: 200.0 mg/kg/injection, schedule: Q04DX002 (ip), vehicle: Klucel (hydroxypropylcellulose) (HPC) 88 % of control | dose: 400.0 mg/kg/injection, schedule: Q04DX002 (ip), vehicle: Klucel (hydroxypropylcellulose) (HPC) 86 % of control

NC(=S)N/N=C\C(=O)c1cccc(O)c1
inactive: [7] 99 % of control | [8] 100 % of control | [9] 105 % of control

O=C(C=C(C(F)(F)Cl)C(F)(F)Cl)c1cccs1
inactive: dose: 2.5 mg/kg/injection, schedule: Q04DX003 (ip), vehicle: saline 95 % of control | dose: 5.0 mg/kg/injection, schedule: Q04DX003 (ip), vehicle: saline 100 % of control | dose: 10.0 mg/kg/injection, schedule: Q04DX003 (ip), vehicle: saline 100 % of control

COc1cc(NC(=O)N(CCCl)N=O)cc(OC)c1OC
active: dose: 1.33 mg/kg/injection, schedule: Q01DX009 (ip), vehicle: saline + alcohol 173 % of control | dose: 2.0 mg/kg/injection, schedule: Q01DX009 (ip), vehicle: saline + alcohol 170 % of control | dose: 7.5 mg/kg/injection, schedule: Q04DX003 (ip), vehicle: saline + alcohol 154 % of control | dose: 12.5 mg/kg/injection, schedule: Q04DX003 (ip), vehicle: other 215 % of control | dose: 25.0 mg/kg/injection, schedule: Q04DX003 (ip), vehicle: other 280 % of control | dose: 50.0 mg/kg/injection, schedule: Q04DX003 (ip), vehicle: other 300 % of control
inactive: dose: 0.18 mg/kg/injection, schedule: Q01DX009 (ip), vehicle: alcohol 107 % of control | dose: 0.27 mg/kg/injection, schedule: Q01DX009 (ip), vehicle: alcohol 109 % of control | dose: 0.4 mg/kg/injection, schedule: Q01DX009 (ip), vehicle: alcohol 100 % of control | dose: 0.6 mg/kg/injection, schedule: Q01DX009 (ip), vehicle: alcohol 107 % of control

COc1cc(N=Nc2cc(CN(C)C)c(O)c3ncccc23)c(OC)cc1N=Nc1c(Cl)cc([N+](=O)[O-])cc1Cl
inactive: [11] 104 % of control | [12] 100 % of control | [13] 109 % of control
